In PMC3104989 (PLoS ONE, 2011):

Legend:
Hog1 [1] = biological target: T1, Hog1 (Saccharomyces cerevisiae, UniProt P32485); assay: in vitro radiometric kinase assay, single dose […]; format: biochemical
T1 sequence (P32485 2-435): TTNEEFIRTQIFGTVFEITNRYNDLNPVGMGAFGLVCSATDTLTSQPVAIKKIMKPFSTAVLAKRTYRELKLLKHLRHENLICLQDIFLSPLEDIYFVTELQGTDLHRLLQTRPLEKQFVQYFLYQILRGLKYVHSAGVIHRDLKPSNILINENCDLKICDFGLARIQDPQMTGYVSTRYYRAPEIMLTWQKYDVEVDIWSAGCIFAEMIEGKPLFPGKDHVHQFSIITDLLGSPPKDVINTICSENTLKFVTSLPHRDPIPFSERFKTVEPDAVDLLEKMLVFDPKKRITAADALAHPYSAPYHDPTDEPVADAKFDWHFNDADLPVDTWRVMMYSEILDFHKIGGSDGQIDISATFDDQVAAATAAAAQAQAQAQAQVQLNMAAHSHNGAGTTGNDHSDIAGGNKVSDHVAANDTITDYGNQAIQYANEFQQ

Hog1 [2] = biological target: T1, Hog1; assay: in vitro radiometric kinase assay with biotinylated Sic1 peptide; format: biochemical

| remaining activity at 0.1 µM (Hog1 [1]) | IC50 (Hog1 [2]) | SMILES |
| --- | --- | --- |
| 50 to 70% | – | Brc1ccc(-c2nnn(Cc3ccccc3)c2-c2ccncc2)cc1 [1e] |
| 50 to 70% | – | Fc1ccc(-c2nnn(Cc3ccccc3)c2-c2ccncc2)cc1 [1c] |
| 35 to 40% | – | CC1CCC(Nc2cc(-c3c(-c4ccc(F)cc4)nnn3Cc3ccccc3)ccn2)CC1 (stereo not drawn) [4d, 4-(1-benzyl-4-(4-fluorophenyl)-1H-1,2,3-triazol-5-yl)-N-(4-methyl-cyclohexyl)pyridin-2-amine] |
| – | 7.4 ± 0.41 nM | CC(C)Nc1cc(-c2c(-c3ccccc3)nnn2Cc2ccccc2)ccn1 [4a, 4-(1-benzyl-4-phenyl-1H-1,2,3-triazol-5-yl)-N-isopropylpyridin-2-amine] |
| 50 to 70% | – | Clc1ccc(-c2nnn(Cc3ccccc3)c2-c2ccncc2)cc1 [1d] |
| 35 to 40% | – | C[C@H](Nc1cc(-c2c(-c3ccc(F)cc3)nnn2Cc2ccccc2)ccn1)c1ccccc1 [4e, (S)-4-(1-benzyl-4-(4-fluorophenyl)-1H-1,2,3-triazol-5-yl)-N-(1-phenylethyl)pyridin-2-amine] |
| 50 to 70% | – | c1ccc(Cn2nnc(-c3ccccc3)c2-c2ccncc2)cc1 [1b] |
| – | 6.2 ± 2.2 nM | CC(C)Nc1cc(-c2c(-c3ccc(F)cc3)nnn2Cc2ccccc2)ccn1 [4b, 4-(1-benzyl-4-(4-fluorophenyl)-1H-1,2,3-triazol-5-yl)-N-iso-propyl-pyridin-2-amine] |
| 50 to 70% | – | Fc1ccc(-c2nnn(CC3CC3)c2-c2ccncc2)cc1 [1a] |
